Assay results taken from patent US20230321187A1, “OCTOPUS-DERIVED PEPTIDE OCTOPROMYCIN HAVING ANTIBACTERIAL AND ANTI-BIOFILM ACTIVITY AGAINST ACINETOBACTER BAUMANNII” (priority 2020, published 2023).
Entries after “also recorded” stand apart in the source; their conditions may differ. Where no end group is shown, it is not given here.

What was measured:
A. baumannii [1] = test: Propidium iodide (PI) uptake / FDA staining membrane permeability assay (CLSM); assay type: cell-based, Acinetobacter baumannii
Procedure: Propidium iodide (PI) uptake assay was performed to evaluate an effect of octopromycin on association with the membrane permeability and apoptosis of A. baumannii. The PI was a red fluorescent nuclear and chromosome counter dye that indicated changes in cell membrane permeability, and was used to detect the presence of dead cells and simultaneously observe live cells by observing green fluorescence (FDA). A. baumannii treated with octopromycin at MIC; 50 μg/mL and MBC; 200 μg/mL levels and control cell suspensions were centrifuged (5000 rpm for 2 minutes), washed with PBS and the pellets were suspended in PBS. Subsequently, the cells were cultured with 20 μg/mL of PI (Sigma Aldrich, USA) and 8 μg/mL of FDA (Sigma Aldrich, USA) at 25° C. for 30 minutes in the dark, and finally, the remaining dye was washed with PBS. Finally, a 5 μL drop of each suspension was placed on a cover slip and fluorescence images were observed using a CLSM integrated with a scan head on an Axiovert 200M inverted microscope (Carl Zeiss, Germany).

A. baumannii [2] = test: Time-kill kinetics (OD 595 nm); assay type: cell-based, Acinetobacter baumannii
Procedure: (§1) The MIC and MBC levels of octopromycin in A. baumannii were determined using media dilution tests and subcultures, respectively, according to the guidelines of the Clinical and Laboratory Standards Institute (CLSI, 2008 M27-A3). Several concentrations of octopromycin (0, 5, 10, 25, 50, 100, and 200 μg/mL) were tested as standard antibiotics (positive control) together with chloramphenicol (10 μg/mL, Sigma-Aldrich, USA) acting on A. baumannii growth and the MBC of chloramphenicol was confirmed according to the same procedure. The MIC was determined as the minimum concentration required to inhibit visual growth of A. baumannii. […] For analysis of time-kill kinetics, A. baumannii was cultured with octopromycin at various concentrations (0, 25, 50, 100, and 200 μg/mL) in the TSA medium at 25° C., and at different time intervals (0, 3, 6, 9, 12, 18, and 21 h), the absorbance was measured at 595 nm using a microplate reader (Bio-Rad, Saint Louis, USA) to confirm an inhibitory effect after culturing.

A. baumannii [3] = test: MIC and MBC by media dilution test and subculture (CLSI); assay type: cell-based, Acinetobacter baumannii
Procedure: In Example 2, in order to confirm the antibacterial effect of octopromycin on A. baumannii bacteria having multi-drug resistance, a minimum inhibitory concentration (MIC) and a minimum bactericidal concentration (MBC) of octopromycin were confirmed.
as §1

A. baumannii [4] = test: FE-SEM analysis of morphological and ultrastructural changes; assay type: cell-based, Acinetobacter baumannii; conditions: MIC (50 μg/mL) and MBC (200 μg/mL), 9 hours
Procedure: To understand a mode of action of octopromycin, FE-SEM analysis was performed at MIC and MBC concentrations to estimate the ultrastructure changes of A. baumannii.
First, A. baumannii cells were treated with octopromycin at MIC (50 μg/mL) and MBC (200 μg/mL) for 9 hours. As a negative control group, an untreated A. baumannii culture solution was used, and all other steps were performed identically for the sample. Subsequently, the culture solution was centrifuged at 3500 rpm […] and the pellet was washed with phosphate saline buffer PBS and prefixed with 2.5% glutaraldehyde for 30 minutes. Then, the prefixed cells were washed with PBS and continuously dehydrated using ethanol (30, 50, 70, 80, 90, and 100%). The fixed cells were dried and coated with platinum using an ion sputter (E-1030, Hitachi, Japan).

[5] = MTT cytotoxicity assay in Raw 264.7 cells; assay type: cell-based; conditions: mouse, Raw 264.7 cells
Procedure: (§2) To measure the cytotoxicity of octopromycin on HEK293T (American Type Culture Collection ATCC-11268) and Raw 264.7 cells, the cells were treated with octopromycin and cell viability was evaluated. The cells were harvested, counted and seeded at a density of […] per well in a 96-well plate and cultured for 24 hours at 37° C. and 5% CO2. The cells were treated with different concentrations of octopromycin (0 to 800 μg/mL) and cultured for 24 hours. After culturing, the culture medium was replaced with a fresh medium, and 10 μL of MTT (5 mg/mL) was added to each well and incubated in a CO2 incubator for 4 hours. The formed formazan crystals were dissolved in 50 μL of DMSO and absorbance was measured at 570 nm using a microplate reader (Bio-Rad Laboratories, Inc, USA). Cells treated with the medium (control) were considered as 100% viability (control group), and current viability was normalized and calculated for the untreated control group.

Raw 264.7 cells = test: MTT cytotoxicity assay in Raw 264.7 cells; assay type: cell-based
Procedure: as §2

A. baumannii [6] = assay type: cell-based; conditions: Acinetobacter baumannii, 24 h, 200 μg/mL
Procedure: A. baumannii was cultured in TSB (OD-0.25, 2.5 x 10^6 CFU/mL) and treated with octopromycin at various concentrations (0, 25, 50, 75, 100, 150, and 200 μg/mL). After culturing for 24 hours in a shaking incubator at 180 rpm at 25° C., A. baumannii was centrifuged at 3500 rpm for 10 minutes, and the cells were washed with PBS. For cell viability assay, A. baumannii cells reacted with 20 μL of an MTT reagent (Sigma Aldrich, USA) for 30 minutes, and the samples were resuspended in dimethylsulfoxide (Sigma Aldrich, USA). The cell viability was measured based on OD at 570 nm using a microplate reader (Bio-Rad, Saint Louis, USA).

A. baumannii biofilm = test: Eradication of already formed biofilm (crystal violet staining); assay type: cell-based, Acinetobacter baumannii; conditions: 24 hours after treatment
Procedure: Next, the effect of octopromycin on biofilm eradication in A. baumannii was confirmed. To measure the eradication effect of the already formed biofilm, 100 μL of A. baumannii (5×10^5 CFU/mL) was cultured in TSB for 24 hours. The culture medium was removed and the wells were carefully washed with PBS to eradicate planktonic bacteria. The wells were added with octopromycin (50 μg/mL (MIC) and 200 μg/mL (MBC)) and further cultured for 24 hours. The biofilm was stained with crystal violet for 30 minutes, washed three times with PBS, and dissolved in 95% ethanol, and the absorbance was measured at 495 nm using a microplate reader (Bio-Rad, USA).

In the case of “RRLIRTDTGPIIYDYFKDQLLKKGMVILRESMKNLKGM [octopromycin]”, the “membrane permeability (PI/FDA staining)” value (A. baumannii [1]; MBC (200 μg/mL)) was “almost all A. baumannii cells showed red fluorescence signals”, the “membrane permeability (PI/FDA staining)” value (A. baumannii [1]; MIC (50 μg/mL)) was “more PI-stained red fluorescent cells” and the “growth inhibition (time-kill kinetics)” value (A. baumannii [2]; 25 μg/mL, up to 12 hours) was “partial growth inhibition”. The “growth inhibition (time-kill kinetics)” value (A. baumannii [2]; at a MIC concentration or less, 25° C., OD 595 nm) was “clear growth inhibition”, the “minimum bactericidal concentration (MBC)” value (A. baumannii [3]; subculture on TSA, 24 hours) was 200 µg/mL and the “minimum inhibitory concentration (MIC)” value (A. baumannii [3]; visual growth) was 50 µg/mL. For the same sequence, the “morphological and ultrastructural changes (FE-SEM)” value (A. baumannii [4]) was “severe membrane destruction; also recorded: caused ultrastructural cell wall deformation”, the viability at 24 h, 400 µg/mL ([5]; Raw 264.7, 400 μg/mL, 24 hours, read-out: cell viability) was 80% and the viability at 24 h ([5]; Raw 264.7, concentration not stated, read-out: cells alive) was at least 85%. For the same sequence, the cell viability (Raw 264.7 cells; Raw 264.7, >400 μg/mL) was “significantly reduced”, the toxic effect (Raw 264.7 cells; Raw 264.7, MBC level (200 μg/mL)) was “no toxic effect” and the “cell viability of A. baumannii” value (A. baumannii [6]) was 1.54%. The “reduction in biofilm (eradication)” value (A. baumannii biofilm; MBC (200 μg/mL)) was 64.2% and the “reduction in biofilm (eradication)” value (A. baumannii biofilm; MIC (50 μg/mL)) was 64.0%.
